From PMC12715788, “Unraveling the Potential of Small Molecule Heparin Glycomimetics in Neuroregenerative Therapeutics” (Journal of the American Chemical Society, 2025)
Several values for one entry are separate records, joined by “and”; a condition that tells them apart may be missing. Equal values may be shown once. Read-outs that look alike come from different tables or passages of the source.

Legend:
AT-III = AT-III (Homo sapiens, UniProt P01008); assay: BLI binding assay, sugars immobilized, protein as analyte
Method: (§1) We evaluated the binding affinity of native HS and synthetic HS glycomimetics (M1, D1, D2, D3, and T1) to these proteins using biolayer interferometry (BLI). The terminal amino groups of the sugars were immobilized onto the sensor surface using standard amine coupling chemistry, and binding assays were performed by introducing the proteins as analytes at varying concentrations (Figure A). The equilibrium dissociation constants (K D) were determined using the steady-state affinity curve fitting.

FGF-1 [1] = molecular target: T1, FGF-1 (Homo sapiens, UniProt P05230); assay: as above; conditions: steady-state affinity curve fitting
Method: as §1

FGF-2 [2] = molecular target: T2, FGF-2 (Homo sapiens, UniProt P09038); assay: as above; conditions: steady-state affinity curve fitting
Method: as §1

NGF = NGF (Homo sapiens, UniProt P01138); assay: as above; conditions: steady-state affinity curve fitting
Method: as §1

FGF-2 [3] = molecular target: T2, FGF-2; assay: BLI competition assay with immobilized native HS for FGF-2 binding
Description: We next examined the functional relevance of the synthetic HS glycomimetics by testing their ability to compete with native HS for FGF-2 binding using competition assays. Although direct binding assays measure the intrinsic affinity of HS glycomimetics for FGF-2, they are limited in representing the complex, multimolecular environment of biological systems. In vivo, FGF-2 activity is tightly regulated by its interactions with GAGs, which are abundant on cell surfaces and in the ECM. These interactions stabilize FGF-2 and facilitate its dimerization with FGF receptors (FGFRs), a requirement for effective signal transduction. , Thus, therapeutic candidates targeting FGF-2 must be evaluated not only for direct binding but also for their ability to modulate or disrupt GAG-mediated interactions. Therefore, we performed competition assays in which native HS was immobilized on the sensor surface. Solutions containing a fixed concentration of FGF-2 (50 nM) were premixed with varying concentrations of HS glycomimetics, functioning as inhibitors in this context, (M1, D1, D2, D3, and T1) and also with the heparin hexasaccharide (H1) (GlcNS6S-GlcA-GlcNS3S6S-IdoA2S-GlcNS6S-GlcA), a well-studied HS glycomimetic in the literature, as a positive control (Figure B). […] The progressive decrease in signal intensity with increasing inhibitor concentration directly reflects competition with immobilized HS for FGF-2 binding.

FGF-1 [4] = molecular target: T1, FGF-1; assay: Far-UV CD spectroscopy and CD thermal denaturation; conditions: CD thermal denaturation 10–90 °C; protein with sugar, 1:3 molar ratio
Description: (§2) To select a lead compound, we complemented the affinity data with a series of studies evaluating the structural and functional implications of protein-HS glycomimetic interactions. We assessed the therapeutic safety profile of our HS glycomimetics. We also employed circular dichroism (CD) spectroscopy to assess secondary structural changes in protein conformation upon binding to native HS and HS glycomimetics. Since native HS alone produces only a minimal signal, it was ensured that its contribution would not interfere with protein-sugar complex spectra. Therefore, only the far-UV CD spectra of bare proteins and their sugar complexes were recorded. […] Upon incubation with sugars (1:3 molar ratio), significant spectral changes were observed, indicating sugar-induced alterations in secondary structure (Figure A).
(§3) We also evaluated the thermal stability of the proteins and their sugar complexes by CD-based thermal denaturation experiments. The spectra were recorded across a temperature range of 10–90 °C (Figure B). For all proteins except AT-III, the unfolding profiles were analyzed to determine the melting temperature (T m), representing the midpoint of the transition from the folded to the unfolded state, an indicator of structural integrity and resistance to thermal denaturation. The calculated values are compiled in Table .

FGF-2 [5] = molecular target: T2, FGF-2; assay: Far-UV CD spectroscopy and CD thermal denaturation; conditions: CD thermal denaturation 10–90 °C; protein with sugar, 1:3 molar ratio
Description: as §2, §3

[6] = test system: citrated pooled rat plasma; assay: Activated partial thromboplastin time (aPTT) assay
Description: To complement these findings, we performed an activated partial thromboplastin time (aPTT) assay in citrated pooled rat plasma to assess the overall impact of the compounds on the intrinsic coagulation pathway. This global clotting assay measures the time required for fibrin formation and is sensitive to anticoagulant effects. Figure F,G compare the effects of UFH, heparan sulfate, Fondaparinux, and the synthetic glycomimetics when supplemented into citrated plasma. […] As expected, UFH produced a strong, concentration-dependent anticoagulant response, prolonging the mean clotting time to 271 s at the highest concentration tested, while heparan sulfate and Fondaparinux induced weaker but measurable effects (83 and 37 s, respectively). […] The results further confirm that selective sulfation patterns can decouple GF recognition from anticoagulant function, an essential prerequisite for their translational application in regenerative medicine. […] These interactions are in line with nonspecific electrostatic binding, a feature of highly sulfated oligosaccharides known to engage different proteins via charge-based, rather than specific, biologically targeted interactions. Thus, to avoid potential off-target effects associated with highly sulfated analogues, we selected the disaccharide D2 for subsequent biological experiments.

PC12 cells = assay: NGF-mediated neurite outgrowth on sugar-coated substrates; assay type: cell-based, rat; conditions: PC12 cells on coated surface, NGF 50 ng/mL; control 108 μm
Description: We next examined the NGF-induced neuritogenic potential of the HS glycomimetics to determine whether they could potentiate neurotrophin-driven neuronal differentiation. To mimic the native role of HS proteoglycans in the ECM, which spatially sequester and present growth factors, we immobilized D2 and also native HS as a positive control onto culture substrates and evaluated its capacity to modulate neural maturation in two well-established neuronal cell models of different species origins, rat-derived PC12 cells and human-derived SH-SY5Y cells. These models represent distinct stages of neuronal differentiation and maturation, and the choice enabled us to compare cellular responses across species, thereby enhancing the translational relevance of our findings. PC12 cells respond to NGF by exiting the cell cycle and extending neurites, while SH-SY5Y cells serve as a model for later-stage maturation and neurite elongation. , […]
In PC12 cells, which serve as a classical model for NGF-induced neuronal differentiation, the presence of both immobilized D2 and native HS coatings led to notable morphological changes relative to control conditions (Figure C). […] Although images used for quantification were selected from well-dispersed regions, we also observed instances of cell clustering in both control and D2 groups (Figure S6.1, Supporting Information). […]

SH-SY5Y cells = assay: NGF-mediated neuronal maturation on sugar-coated substrates, β-tubulin III fluorescence; assay type: cell-based, human; conditions: SH-SY5Y cells on coated surface, NGF 50 ng/mL; control 1.43
Description: We next examined the NGF-induced neuritogenic potential of the HS glycomimetics to determine whether they could potentiate neurotrophin-driven neuronal differentiation. To mimic the native role of HS proteoglycans in the ECM, which spatially sequester and present growth factors, we immobilized D2 and also native HS as a positive control onto culture substrates and evaluated its capacity to modulate neural maturation in two well-established neuronal cell models of different species origins, rat-derived PC12 cells and human-derived SH-SY5Y cells. These models represent distinct stages of neuronal differentiation and maturation, and the choice enabled us to compare cellular responses across species, thereby enhancing the translational relevance of our findings. PC12 cells respond to NGF by exiting the cell cycle and extending neurites, while SH-SY5Y cells serve as a model for later-stage maturation and neurite elongation. ,
In this context, the immobilization of D2 onto culture substrates provided a means to investigate how its presentation as an ECM-like component influences neurotrophic responses, particularly in combination with NGF. In both cell lines, D2 and native HS were applied to the substrate prior to seeding, thereby mimicking its natural role as a structural component of the ECM. […]

[7] = test system: rat dissociated hippocampal neurons; assay: Neurite morphometry in dissociated hippocampal neurons; assay type: cell-based; conditions: 24 h treatment, 1 day in vitro, D2 1 μM, FGF-2 40 ng/mL, mean ± SEM
Method: In the pursuit of this, we used rat dissociated hippocampal neurons as an in vitro model system. We assessed the impact of HS glycomimetics on neuronal morphology, using immunofluorescence imaging and quantitative morphometric analysis, and on synaptic functionality through electrophysiological monitoring of spontaneous neuronal activity.
During the first day of differentiation in vitro (Table S7.1 in SI), neurons were treated for 24 h with either control medium, glycomimetic D2 (1 μM), FGF-2 (40 ng/mL) alone, or a combination of FGF-2 and D2 (40 ng/mL and 1 μM, respectively). After treatments, cultures were fixed and immuno-labeled with antibodies against the neuronal marker β-Tubulin III to study cell morphology. […] Quantitative analysis further corroborated these observations (Figure B–C).

T1 sequence (P05230 whole entry, species assumed): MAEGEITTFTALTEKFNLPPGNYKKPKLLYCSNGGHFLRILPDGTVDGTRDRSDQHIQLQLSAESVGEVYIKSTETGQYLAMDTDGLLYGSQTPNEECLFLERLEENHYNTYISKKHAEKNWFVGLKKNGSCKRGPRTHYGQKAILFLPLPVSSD
T2 sequence (P09038 134-288 limits assumed, species assumed): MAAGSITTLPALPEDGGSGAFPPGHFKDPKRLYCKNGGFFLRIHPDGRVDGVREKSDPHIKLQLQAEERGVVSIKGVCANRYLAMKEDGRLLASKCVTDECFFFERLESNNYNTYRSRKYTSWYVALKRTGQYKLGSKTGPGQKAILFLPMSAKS
NGF, sequence (P01138 122-241): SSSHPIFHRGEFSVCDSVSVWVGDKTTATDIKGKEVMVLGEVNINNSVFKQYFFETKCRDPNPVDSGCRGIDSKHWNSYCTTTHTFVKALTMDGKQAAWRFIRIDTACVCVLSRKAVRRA
AT-III, sequence (P01008 33-464): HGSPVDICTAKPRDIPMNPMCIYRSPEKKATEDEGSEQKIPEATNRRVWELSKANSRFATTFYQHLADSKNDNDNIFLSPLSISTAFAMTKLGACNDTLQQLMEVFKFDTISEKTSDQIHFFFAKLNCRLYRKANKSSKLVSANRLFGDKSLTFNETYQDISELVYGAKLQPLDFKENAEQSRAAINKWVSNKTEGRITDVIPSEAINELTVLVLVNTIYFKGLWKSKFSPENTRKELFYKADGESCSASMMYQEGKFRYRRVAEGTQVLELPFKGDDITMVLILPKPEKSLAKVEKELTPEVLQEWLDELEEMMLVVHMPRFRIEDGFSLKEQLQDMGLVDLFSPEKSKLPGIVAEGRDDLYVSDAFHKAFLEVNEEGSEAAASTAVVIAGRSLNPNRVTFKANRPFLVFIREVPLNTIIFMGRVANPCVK

CC(=O)N[C@H]1[C@@H](OCCN)O[C@H](COS(=O)(=O)O)[C@@H](O[C@@H]2O[C@@H](C(=O)O)[C@@H](OS(=O)(=O)O)[C@H](O)[C@H]2OS(=O)(=O)O)[C@@H]1O [D2, IdoA2S4S-GlcNAc6S]
binding to AT-III (AT-III): no measurable binding | Kd (FGF-1 [1]): 0.78 µM | Kd (FGF-2 [2]): 0.67 µM | Kd (NGF; read-out: KD for NGF, two-site binding model, first value): 2.6 µM | Kd (NGF; read-out: KD for NGF, two-site binding model, second value): 468 µM | competition with immobilized native HS for FGF-2 binding, signal intensity (FGF-2 [3]; FGF-2 50 nM premixed with varying concentrations): dose-dependent reduction in signal intensity | IC50 (FGF-2 [3]; FGF-2 50 nM, fixed association time t = 240 s, read-out: Apparent IC50(t), competition with immobilized native HS for FGF-2 binding): 17.9 µM | FGF-1 Sample Tm (FGF-1 [4]): 45.0 °C and 45.0 ± 0.4 °C | FGF-2 Sample Tm (FGF-2 [5]): 52.4 °C and 52.4 ± 1.2 °C | aPTT mean clotting time ([6]; citrated pooled rat plasma, highest concentration tested, control 22 s): 24 s | anticoagulant activity ([6]; conclusion from aPTT and chromogenic assays): without any anticoagulant activity | total neurite outgrowth per image (average sum of neurite length) (PC12 cells): 541 μm | mean normalized β-tubulin III fluorescence intensity (SH-SY5Y cells): 2.15 | number of neurites emerging from the cell body ([7]; control 3.6 ± 0.22): 3.8 ± 0.23 neurites per neuron | length of the longest neurite ([7]; control 38 ± 2): 43 ± 3 μm
